Laboratory results taken from the supplement of paper PMC8617591.

Columns and labels:
[1] = system: Mycobacterium tuberculosis Erdman (autoluminescent); assay: FIC90 (Loewe) at 90% inhibition (log2); higher = more antagonistic
Procedure: (§1)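 DiaMOND equipotent two-drug combination dose responses against autoluminescent M. tuberculosis Erdman in 8 in vitro models. Read-out is OD600, or luminescence for the intracellular and dormancy models, normalised to untreated wells. Hill-fit Einf, AUC25 and GRinf are potency metrics; FIC50 and FIC90 are Loewe-additivity fractional inhibitory concentrations, given as log2 (negative = synergy). Replicates are averaged.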

[2] = system: Mycobacterium tuberculosis Erdman (autoluminescent); assay: FIC50 (Loewe) at 50% inhibition (log2); higher = more antagonistic
Procedure: as §1

[3] = system: Mycobacterium tuberculosis Erdman (autoluminescent); assay: Einf, fitted maximum growth inhibition of combination (fraction); higher = stronger maximal inhibition
Procedure: as §1

[4] = system: Mycobacterium tuberculosis Erdman (autoluminescent); assay: AUC25, normalised area under dose response up to IC25 (fraction (0-1)); higher = more potent at low dose
Procedure: as §1

[5] = system: Mycobacterium tuberculosis Erdman (autoluminescent); assay: GRinf, maximum normalised growth rate inhibition (unitless (-1 to 1)); higher = less effect (negative = killing)
Procedure: as §1

COc1nc2ccc(Br)cc2cc1[C@@H](c1ccccc1)[C@@](O)(CCN(C)C)c1cccc2ccccc12 [bedaquiline] + NNC(=O)c1ccncc1 [isoniazid]
Settings	AUC25, [4]	Einf, [3]	FIC50, [2]	FIC90, [1]	GRinf, [5]
in vitro model: acidic pH 5.7, time point: constant (~7 days, model-specific)	0.107	0.873	0.428	–	-0.331
in vitro model: acidic pH 5.7, time point: terminal (~4-5 doublings, model-specific)	0.0934	0.984	0.351	0.404	-0.384
in vitro model: intracellular J774, time point: constant = terminal	–	0.98	–	0.531	-0.383

Settings	AUC25, [4]	Einf, [3]	FIC50, [2]	FIC90, [1]	GRinf, [5]
in vitro model: butyrate, time point: constant (~7 days, model-specific)	0.0598	0.944	0.533	0.547	-0.0886
in vitro model: butyrate, time point: terminal (~4-5 doublings, model-specific)	0.0557	0.98	0.43	0.506	-0.111
in vitro model: cholesterol 0.05 mM, time point: constant (~7 days, model-specific)	0.102	0.729	0.373	–	-0.169
in vitro model: cholesterol 0.05 mM, time point: terminal (~4-5 doublings, model-specific)	0.0662	0.913	0.302	0.193	-0.202
in vitro model: cholesterol-high 0.2 mM, time point: constant (~7 days, model-specific)	0.0815	0.964	0.284	0.699	-0.49
in vitro model: cholesterol-high 0.2 mM, time point: terminal (~4-5 doublings, model-specific)	0.0507	0.996	0.335	0.25	-0.658
in vitro model: dormancy (butyrate + nitrate, low O2), time point: constant (~7 days, model-specific)	0.0656	0.92	0.646	0.194	0.179
in vitro model: dormancy (butyrate + nitrate, low O2), time point: terminal (~4-5 doublings, model-specific)	0.0512	0.983	0.0908	-0.202	-0.0876
in vitro model: standard 7H9 glycerol, time point: constant = terminal	0.0578	0.966	-0.0769	-0.0712	-0.124
in vitro model: valerate, time point: constant (~7 days, model-specific)	0.0996	0.946	0.561	0.24	-0.194
in vitro model: valerate, time point: terminal (~4-5 doublings, model-specific)	0.0554	0.971	0.661	0.741	-0.129
